# Results: patent US20080293683A1, “Hormone Replacement Therapy” (University of Kansas Medical Center, priority 2007, published 2008)
# Where two headings read alike, the source gives them in different places.
# How the values were obtained:
# recombinant human ERα = biological target: T1, recombinant human ERα (Homo sapiens, UniProt P03372); assay: ERα binding assay: competition of [3H]E2 binding by competing estrogens; conditions: for RBAα % (relative binding affinity for ERα, of E2): calculated against E2 = 100; for RBAα/RBAβ: ratio of relative binding affinities ERα over ERβ; for RBA for ERα, % of E1: relative to E1
# T1 construct: purchased PanVera Corporation (Madison, Wis.); host or cells: baculovirus-mediated expression system
# T1 sequence (P03372 1-595): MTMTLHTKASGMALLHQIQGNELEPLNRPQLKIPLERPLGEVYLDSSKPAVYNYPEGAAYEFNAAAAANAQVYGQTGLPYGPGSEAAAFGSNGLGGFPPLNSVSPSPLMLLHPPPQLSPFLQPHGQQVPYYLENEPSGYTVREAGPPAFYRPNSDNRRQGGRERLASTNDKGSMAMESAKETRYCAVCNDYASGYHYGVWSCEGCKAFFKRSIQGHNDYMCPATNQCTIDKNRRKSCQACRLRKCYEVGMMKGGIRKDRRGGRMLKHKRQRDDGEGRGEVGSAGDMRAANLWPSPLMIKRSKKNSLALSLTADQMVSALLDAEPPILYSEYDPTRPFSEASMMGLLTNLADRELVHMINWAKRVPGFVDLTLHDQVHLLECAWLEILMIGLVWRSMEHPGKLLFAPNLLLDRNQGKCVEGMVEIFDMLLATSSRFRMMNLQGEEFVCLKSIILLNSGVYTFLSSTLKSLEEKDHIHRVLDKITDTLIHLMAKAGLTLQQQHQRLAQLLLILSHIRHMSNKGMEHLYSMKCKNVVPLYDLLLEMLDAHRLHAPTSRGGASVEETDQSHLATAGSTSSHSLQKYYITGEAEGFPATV
# Text: (§1) The recombinant human ERα and ERβ proteins and bovine serum albumin (BSA) were obtained from PanVera Corporation (Madison, Wis.). According to the supplier, the recombinant human ERα and ERβ were produced in a baculovirus-mediated expression system, and they were soluble and functionally active, with post-translational modifications similar to those found in mammalian cells. See Reid et al., Human estrogen receptor-α: Regulation by synthesis, modification and degradation, Cell. Mol. Life.
# (§2) The following buffer solutions were used in the ER binding assays, and they were prepared beforehand and stored at 4° C. The binding buffer consisted of 10% glycerol, 2 mM dithiothreitol, 1 mg/mL BSA and 10 mM Tris-HCl at pH 7.5. The ERα washing buffer contained 40 mM Tris-HCl and 100 mM KCl (pH 7.4), but the ERG washing buffer contained only 40 mM Tris-HCl (adjusted to pH 7.4). The 50% hydroxylapatite slurry was prepared first by vigorously mixing 10 g hydroxylapatite with 60 mL of the Tris-HCl solution (50 mM, pH 7.4). Hydroxylapatite was then allowed to settle for 20 minutes at room temperature, and the supernatant was decanted. The above procedures were repeated 10 times, and afterwards hydroxylapatite was kept in the 50 mM Tris-HCl solution overnight at 4° C. Hydroxylapatite slurry was then adjusted to an approximate final concentration of 50% (v/v) using the same Tris-HCl solution and stored at 4° C., and the slurry was stable for up to several months.
# (§3) Note that all of the estrogens were initially dissolved in pure ethanol to a stock concentration of 1 mM, and then further diluted to 100 μM with 20% aqueous ethanol. […] Immediately before the addition of the ERα or ERβ protein, it was diluted in the binding buffer and mixed gently with repetitive pipettings. […] The incubation mixture was then mixed gently and thoroughly with repetitive pipettings. […] The binding mixture was incubated at room temperature for two hours. At the end of the incubation, 100 μL of the hydroxylapatite slurry was added to each tube and the tubes were incubated on ice for 15 minutes with 3 times of brief vortexing. An aliquot (1 mL) of the appropriate washing buffer was added, mixed, and centrifuged at 10,000 g for five minutes, and the supernatants were discarded. This wash step was repeated twice. Hydroxylapatite pellets were then resuspended in 200 μL ethanol (followed by another rinse with 200 μL ethanol), and then the content was transferred to scintillation vials (containing 4 mL of the scintillation fluid) for measurement of ^3H-radioactivity with a liquid scintillation counter (Packard Tri-CARB 2900 TR; Downers Grove, Ill.).
# (§4) To calculate the specific binding (pmol/mL) of the human ERα or ERβ protein at each concentration point, the following equation was used: […]
# (§5) When a lower radioligand concentration is used, the corresponding IC50 value will also be relatively lower, but when the radioligand concentration increases, the corresponding IC50 value will also increase. […] Since the RBA value is a parameter that is independent of the radioligand concentration used, we thus have placed more emphasis on the RBA values instead of the absolute IC50 values in interpreting the physiological meanings of the data from in vitro receptor competition assays.
# recombinant human ERβ = biological target: T2, recombinant human ERβ (Homo sapiens, UniProt Q92731); assay: ERβ binding assay: competition of [3H]E2 binding by competing estrogens; conditions: for RBAβ (%) (relative binding affinity for ERβ, of E2): calculated against E2 = 100
# T2 construct: purchased PanVera Corporation (Madison, Wis.); host or cells: baculovirus-mediated expression system
# T2 sequence (Q92731 whole entry): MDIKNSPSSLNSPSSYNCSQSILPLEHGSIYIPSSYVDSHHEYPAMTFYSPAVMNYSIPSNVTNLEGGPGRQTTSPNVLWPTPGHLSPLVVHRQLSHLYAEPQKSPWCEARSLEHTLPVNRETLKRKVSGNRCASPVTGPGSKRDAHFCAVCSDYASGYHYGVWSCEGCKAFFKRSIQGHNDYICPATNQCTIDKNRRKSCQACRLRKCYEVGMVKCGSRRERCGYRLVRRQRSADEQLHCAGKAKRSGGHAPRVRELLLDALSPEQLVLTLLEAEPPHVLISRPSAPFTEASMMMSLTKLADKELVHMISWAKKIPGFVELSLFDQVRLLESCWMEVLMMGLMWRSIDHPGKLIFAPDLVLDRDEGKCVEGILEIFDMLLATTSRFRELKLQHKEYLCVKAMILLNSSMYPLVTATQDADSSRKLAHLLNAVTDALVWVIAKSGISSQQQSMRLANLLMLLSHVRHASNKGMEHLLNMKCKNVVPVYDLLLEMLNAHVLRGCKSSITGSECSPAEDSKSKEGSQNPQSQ
# Text: as §1, §2, §3, §4, §5
SMILES,"RBAα % (relative binding affinity for ERα, of E2) (recombinant human ERα)",RBAα/RBAβ (recombinant human ERα),IC50 (recombinant human ERα; read-out: ERα IC50),"RBAβ (%) (relative binding affinity for ERβ, of E2) (recombinant human ERβ)",IC50 (recombinant human ERβ; read-out: ERβ IC50),also measured
"CC12CCC3c4ccc(O)cc4C(=O)CC3C1CC(O)C2O (stereo not shown) [6-Keto-E3, 6-Ketoestriol]",25%,8.3,44.7 nM,3%,316 nM,"RBAα/RBAβ (recombinant human ERα; listed as 6-ketoestriol): about 8.3; RBA for ERα, % of E3 (recombinant human ERα; relative to E3): 224%; RBA for ERβ, % of E3 (recombinant human ERβ; relative to E3): 8%"
"C[C@]12CC[C@@H]3c4ccc(O)cc4[C@@H](O)C[C@H]3[C@@H]1CC[C@@H]2O [6α-OH-E2, 6α-Hydroxyestradiol]",6%,1.5,200 nM,4%,251 nM,RBAα/RBAβ (recombinant human ERα; listed as 6α-hydroxyestradiol): about 1.5
"C[C@]12CC[C@@H]3c4ccc(O)cc4[C@H](O)C[C@H]3[C@@H]1CC[C@@H]2O [6β-OH-E2, 6β-Hydroxyestradiol]",1%,0.5,794 nM,2%,562 nM,
"C[C@]12C[C@@H](O)[C@@H]3c4ccc(O)cc4CC[C@H]3[C@@H]1CCC2=O [11α-OH-E1, 11α-Hydroxyestrone]",,,> 1000 nM,,> 1000 nM,
"C[C@]12C[C@@H](O)[C@@H]3c4ccc(O)cc4CC[C@H]3[C@@H]1CC[C@@H]2O [11α-OH-E2, 11α-Hydroxyestradiol]",,,> 1000 nM,,> 1000 nM,
"C#C[C@]1(O)CC[C@H]2[C@@H]3CCc4cc(O)ccc4[C@H]3[C@@H](OC)C[C@@]21C [11β-MeO-EE2, 11β-Methoxyethynylestradiol]",35%,1.8,31.6 nM,20%,44.7 nM,RBAα/RBAβ (recombinant human ERα; listed as 11β-methoxyethynyl estradiol): about 1.8
"C[C@]12C[C@H](O)[C@@H]3c4ccc(O)cc4CC[C@H]3[C@@H]1CCC2=O [11β-OH-E1, 11β-Hydroxyestrone]",,,> 1000 nM,,> 1000 nM,
"CC12CC(O)C3c4ccc(O)cc4CCC3C1CCC2O (stereo not drawn) [11β-OH-E2, 11β-Hydroxyestradiol]",,,> 1000 nM,,> 1000 nM,
"C[C@]12CC[C@@H]3c4ccc(O)cc4CC[C@H]3[C@@H]1[C@@H](O)[C@@H](O)[C@@H]2O [15α-OH-E3, 15α-Hydroxyestriol (Estetrol)]",4%,1.3,282 nM,3%,355 nM,RBAα/RBAβ (recombinant human ERα; listed as estetrol): about 1.3
"C[C@@]12C=CC[C@H]1[C@@H]1CCc3cc(O)ccc3[C@H]1CC2 [16-Estratetraen, 1,3,5(10),16-Estratetraen-3-ol]",35%,0.4,31.6 nM,80%,14.1 nM,
"CC12CCC3c4ccc(O)cc4CCC3C1CC(=O)C2=O (stereo not shown) [16-Keto-E1, 16-Ketoestrone]",2%,0.2,631 nM,10%,89.1 nM,"RBA for ERα, % of E1 (recombinant human ERα): 18%; RBA for ERβ, % of E1 (recombinant human ERβ; relative to E1): 501%; binding affinity for ERβ, fold higher than E1 (recombinant human ERβ; relative to E1): five-fold higher; relative preference for ERβ over ERα, times higher than E1 (recombinant human ERβ; relative to E1): approximately 25 times"
"C[C@]12CC[C@@H]3c4ccc(O)cc4CC[C@H]3[C@@H]1CC(=O)[C@@H]2O [16-Keto-E2, 16-Ketoestradiol]",1%,0.1,112 nM,18%,50.1 nM,
"C[C@]12CC[C@@H]3c4ccc(O)cc4CC[C@H]3[C@@H]1C[C@@H](O)C2=O [16α-OH-E1, 16α-Hydroxyestrone]",,0.1,,35%,,"IC50 (recombinant human ERα): 56.2 nM; binding affinity for ERα (in words) (recombinant human ERα): twice as high as that of E1; IC50 (recombinant human ERβ): 25.1 nM; binding affinity for ERβ, fold higher than E1 (recombinant human ERβ; relative to E1): 18 fold"
"CC12CCCC1C1CCc3cc(O)ccc3C1CC2 (stereo not shown) [17-Desoxy-E2, 17-Desoxyestradiol]",16%,0.4,70.8 nM,45%,19.9 nM,
C[C@]12CCc3c(ccc4cc(O)ccc34)[C@@H]1CCC2=O [D-Equilenin],2%,0.3,,7%,,"IC50 (recombinant human ERα): 562 nM; ERα RBA (recombinant human ERα; Table 4, Premarin components): 2; Ratio (ERα RBA / ERβ RBA) (recombinant human ERα; Table 4, Premarin components): 0.3; RBA for ERα, % of E1 (recombinant human ERα): 20%; IC50 (recombinant human ERβ): 126 nM; ERβ RBA (recombinant human ERβ; Table 4, Premarin components): 7; RBA for ERβ, % of E1 (recombinant human ERβ; relative to E1): 355%; binding affinity for ERβ, fold higher than E1 (recombinant human ERβ; relative to E1): more than 3 fold"
"C/C=C(/C(=C/C)c1ccc(O)cc1)c1ccc(O)cc1 [Dienestrol, reference compound]",37%,0.7,30.2 nM,56%,19.9 nM,
"C[C@]12CC[C@@H]3c4ccc(OS(=O)(=O)O)cc4CC[C@H]3[C@@H]1CC[C@@H]2O [E2-3-sulfate, Estradiol 3-sulfate]",,,> 1000 nM,,> 1000 nM,binding affinity for ERα (in words) (recombinant human ERα; concentrations up to 1000 nM): basically devoid of appreciable binding affinity; binding affinity for ERβ (in words) (recombinant human ERβ; concentrations up to 1000 nM): basically devoid of appreciable binding affinity
"C[C@]12CC[C@@H]3c4ccc(O)cc4C[C@@H](CCCCCCO)[C@H]3[C@@H]1CC[C@@H]2O [E2-7α-(CH2)6OH, 7α-(6-Hydroxyhexanyl)-17β-estradiol]",27%,0.7,41.8 nM,40%,22.3 nM,
